pKi: −log10 of the molar value.
Target: GTPase HRas (Homo sapiens) (UniProt P01112)
Assay: Ras wild-type GTP-binding inhibitors, SAR follow-up, biochemical, pyrazoline analogs, multiplex bead flow cytometry (AID 2047)
Settings: GST-Ras beads, Bodipy-FL-GTP binding, Ki calculated from EC50

Sequence of GTPase HRas (Homo sapiens) (P01112 whole entry, looked up): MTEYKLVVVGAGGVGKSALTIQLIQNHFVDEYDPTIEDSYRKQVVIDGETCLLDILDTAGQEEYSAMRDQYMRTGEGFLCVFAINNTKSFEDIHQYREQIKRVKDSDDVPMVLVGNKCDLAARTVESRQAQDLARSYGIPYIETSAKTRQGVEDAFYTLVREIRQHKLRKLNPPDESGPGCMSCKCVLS

Row | SMILES | pKi
1 | NS(=O)(=O)c1ccc(N2N=C(c3ccc(Cl)cc3)CC2c2ccccc2)cc1 (stereo unspecified) | 8.00
2 | COc1ccc(C2CC(c3ccc(Cl)cc3)=NN2c2ccccc2)cc1OC (stereo unspecified) | 8.00
3 | COc1ccc(C2=NN(c3ccccc3F)C(c3ccc(F)cc3)C2)cc1 (stereo unspecified) | 5.68

Second part, the molecule after the results:

Row | pKi | SMILES
4 | 5.56 | COc1ccc(C2=NN(c3ccccc3)C(c3ccccc3C(F)(F)F)C2)cc1 (stereo unspecified)
5 | 6.80 | COc1ccc(C2CC(c3ccccc3)=NN2c2ccc(Cl)c(C(=O)O)c2)cc1 (stereo unspecified)
6 | 8.00 | CN(C)c1ccc(C2CC(c3ccccc3)=NN2c2ccccc2)cc1 (stereo unspecified)
